Data on 5 molecules can be found in patent US9247759B2, “Identification of human T2R receptors that respond to bitter compounds that elicit the bitter taste in compositions, and the use thereof in assays to identify compounds that inhibit (block) bitter taste in compositions and use thereof” (SENOMYX, INC., priority 2007, dated 2016).

In general, melting point refers to the temperature of the solid-liquid transition. As usually defined, the IC50 is the concentration that gives 50% inhibition.

Each structure is given as a SMILES string.

In data set [1] the target is T1, hT2R14 (Homo sapiens (Human), UniProt Q9NYV8). Description: hT2R panel inhibition, transient HEK293 G16g44, agonist Aristolochic Acid 2 μM. It is filed as cell-based. Particulars: HEK293, compound at 25 μM; receptor activated to EC80 with the corresponding agonist; read-out: screening result against bitter receptor 14. The method in brief: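 Each hT2R was transiently transfected into HEK293 cells stably expressing G16g44 and assayed functionally for inhibition of agonist response. Agonists were applied at EC80: andrographolide at 0.5 mM for hT2R8 and aristolochic acid at 2 μM for hT2R14.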

Data set [2] deals with hT2R3 (Homo sapiens (Human), UniProt Q9NYW6). Description: hT2R panel inhibition, transient HEK293 G16g44, agonist Chloroquine pH6.5 50 μM. It counts as cell-based. Particulars: HEK293, compound at 25 μM; receptor activated to EC80 with the corresponding agonist; read-out: screening result against bitter receptor 3. The gist of the method: (§1)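 Here, inhibition reflects how much the test compound lowers activation of a transiently expressed human bitter receptor stimulated at EC80. Twenty-two such receptors were tested separately.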

In data set [3] the test system is hT2R55. Description: hT2R panel inhibition, transient HEK293 G16g44, agonist Cinchonine 150 μM. It counts as cell-based, human. Particulars: compound at 25 μM; receptor activated to EC80 with the corresponding agonist. The gist of the method: as §1
In data set [4] the target is hT2R61 (Homo sapiens (Human), UniProt P59537). Description: hT2R panel inhibition, transient HEK293 G16g44, agonist Aristolochic Acid 25 nM. It is filed as cell-based. The conditions noted are these: HEK293, compound at 25 μM; receptor activated to EC80 with the corresponding agonist; read-out: screening result against bitter receptor 61. The gist of the method:
as §1

Data set [5] deals with hT2R51 (Homo sapiens (Human), UniProt P59533). Nature of the data set: hT2R panel inhibition, transient HEK293 G16g44, agonist Prop 2.5 μM. It counts as cell-based. The conditions noted are these: HEK293, compound at 25 μM; receptor activated to EC80 with the corresponding agonist; read-out: screening result against bitter receptor 51. The method in brief: as §1
Data set [6] deals with hT2R64 (Homo sapiens (Human), UniProt P59538). Nature of the data set: hT2R panel inhibition, transient HEK293 G16g44, agonist Aristolochic Acid 1 μM. It counts as cell-based. Particulars: HEK293, compound at 25 μM; receptor activated to EC80 with the corresponding agonist; read-out: screening result against bitter receptor 64. The gist of the method: as §1
In data set [7] the test system is hT2R67. Nature of the data set: hT2R panel inhibition, transient HEK293 G16g44, agonist Andrographolide 5 μM. It is filed as cell-based, human. The conditions noted are these: compound at 25 μM; receptor activated to EC80 with the corresponding agonist. The gist of the method:
as §1

In data set [8] the target is hT2R16 (Homo sapiens (Human), UniProt Q9NYV7). Nature of the data set: hT2R panel inhibition, transient HEK293 G16g44, agonist Salicin 1 mM. It counts as cell-based. The conditions noted are these: HEK293, compound at 25 μM; receptor activated to EC80 with the corresponding agonist; read-out: screening result against bitter receptor 16. The gist of the method:
as §1

The target of data set [9] is hT2R71 (Homo sapiens (Human), UniProt P59536). Nature of the data set: hT2R panel inhibition, transient HEK293 G16g44, agonist Picric Acid 10 μM. The conditions noted are these: HEK293, compound at 25 μM; receptor activated to EC80 with the corresponding agonist; read-out: screening result against bitter receptor 71. It counts as cell-based. The method in brief:
as §1

Data set [10] deals with hT2R63. Nature of the data set: hT2R panel inhibition, transient HEK293 G16g44, agonist Caffeine 1 mM or Andrographolide 100 μM. It counts as cell-based, human. The conditions noted are these: compound at 25 μM; receptor activated to EC80 with the corresponding agonist. The gist of the method: as §1
The subject of data set [11] is hT2R44. Description: hT2R panel inhibition, transient HEK293 G16g44, agonist Denatonium 0.5 μM. It is filed as cell-based, human. The conditions noted are these: compound at 25 μM; receptor activated to EC80 with the corresponding agonist. The gist of the method:
as §1

The target of data set [12] is hT2R75 (Homo sapiens (Human), UniProt P59540). Description: hT2R panel inhibition, transient HEK293 G16g44, agonist Strychnine 1 μM. It is filed as cell-based. The conditions noted are these: HEK293, read-out: screening result against bitter receptor 75, compound at 25 μM; receptor activated to EC80 with the corresponding agonist.
Data set [13] addresses hT2R10 (Homo sapiens (Human), UniProt Q9NYW0). Description: hT2R panel inhibition, transient HEK293 G16g44, agonist Strychnine 50 μM. The conditions noted are these: HEK293, read-out: screening result against bitter receptor 10, compound at 25 μM; receptor activated to EC80 with the corresponding agonist. It counts as cell-based.
Data set [14] has as its target T1, hT2R14. Description: hT2R14 antagonist high-throughput FLIPR assay, stable cell line with G16g44, agonist aristolochic acid. Particulars: read-out: IC50 on hT2R14 bitter receptor. It is filed as cell-based. The method in brief:
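HEK293 cells stably expressing hT2R14 with chimeric G16g44 were stimulated with aristolochic acid (3 μM), giving 70-80% of maximal receptor activity. Test compounds were added together with the agonist, and antagonism was read as fluorescent calcium signal on FLIPR.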

The target of data set [15] is hT2R7 (Homo sapiens (Human), UniProt Q9NYW3). Nature of the data set: hT2R panel inhibition, transient HEK293 G16g44, agonist Chloroquine pH6.5 10 mM. It counts as cell-based. The conditions noted are these: HEK293, compound at 25 μM; receptor activated to EC80 with the corresponding agonist; read-out: screening result against bitter receptor 7. The method in brief:
as §1

Data set [16] has as its system hT2R54. Nature of the data set: hT2R panel inhibition, transient HEK293 G16g44, agonist Ranitidine 5 mM. The conditions noted are these: compound at 25 μM; receptor activated to EC80 with the corresponding agonist. It is filed as cell-based, human. The gist of the method:
as §1

The test system of data set [17] is hT2R65. Nature of the data set: hT2R panel inhibition, transient HEK293 G16g44, agonist Oleuropein 1 mM. It counts as cell-based, human. The conditions noted are these: compound at 25 μM; receptor activated to EC80 with the corresponding agonist. The gist of the method:
as §1

Data set [18] has as its target hT2R5 (Homo sapiens (Human), UniProt Q9NYW4). Description: hT2R panel inhibition, transient HEK293 G16g44, agonist Picoline 10 mM. The conditions noted are these: HEK293, compound at 25 μM; receptor activated to EC80 with the corresponding agonist; read-out: screening result against bitter receptor 5. It is filed as cell-based. The method in brief: as §1
The target in data set [19] is hT2R4 (Homo sapiens (Human), UniProt Q9NYW5). Nature of the data set: hT2R panel inhibition, transient HEK293 G16g44, agonist Chloroquine pH6.5 5 mM. It is filed as cell-based. The conditions noted are these: HEK293, compound at 25 μM; receptor activated to EC80 with the corresponding agonist; class symbols; read-out: screening result against bitter receptor 4. The method in brief: as §1

For data set [20], the system named is bitter taste of instant coffee. Description: 2-alternative forced choice taste test, instant coffee with hT2R8 antagonists. It is filed as in vivo, human. The conditions noted are these: antagonist 5 μM. As for the experimental part:
Taste tests were performed with hT2R8 antagonists in instant coffee using a 2-alternative forced choice method with a taste panel of 15-20 panelists. Coffee samples with the antagonists were given to the taste panelists together with the same sample without antagonists, the panelists were asked to identify the bitterer sample within the pair.

Data set [21] deals with hT2R8 (Homo sapiens (Human), UniProt Q9NYW2). Description: hT2R8 antagonist high-throughput FLIPR assay, stable cell line with G16g44, agonist andrographolide. It counts as cell-based. The conditions noted are these: read-out: IC50 on hT2R8 bitter receptor. The method in brief: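 HEK293 cells stably co-expressing hT2R8 and chimeric G16g44, read on FLIPR. Test compounds added together with andrographolide (200 μM), which drives the receptor to 70–80% of maximal activity; antagonism seen as reduced agonist response.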
hT2R8, sequence (Q9NYW2 whole entry): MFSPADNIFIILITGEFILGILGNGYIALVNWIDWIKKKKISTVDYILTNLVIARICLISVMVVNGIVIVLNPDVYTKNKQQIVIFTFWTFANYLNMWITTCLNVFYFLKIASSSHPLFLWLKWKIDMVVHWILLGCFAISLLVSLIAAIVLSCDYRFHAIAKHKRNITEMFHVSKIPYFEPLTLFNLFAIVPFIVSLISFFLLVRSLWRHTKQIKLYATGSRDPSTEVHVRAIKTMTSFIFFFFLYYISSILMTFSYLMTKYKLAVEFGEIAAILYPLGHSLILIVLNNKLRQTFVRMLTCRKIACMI

T1 sequence (Q9NYV8 whole entry): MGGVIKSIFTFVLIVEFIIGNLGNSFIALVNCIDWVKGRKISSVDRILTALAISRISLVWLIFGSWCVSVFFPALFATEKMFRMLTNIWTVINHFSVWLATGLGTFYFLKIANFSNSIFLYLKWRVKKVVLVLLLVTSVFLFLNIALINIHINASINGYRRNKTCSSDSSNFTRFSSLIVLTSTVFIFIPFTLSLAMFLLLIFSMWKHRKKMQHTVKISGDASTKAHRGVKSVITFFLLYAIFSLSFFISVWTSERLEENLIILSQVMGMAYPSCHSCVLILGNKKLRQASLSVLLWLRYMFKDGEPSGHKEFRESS
hT2R7, sequence (Q9NYW3 whole entry): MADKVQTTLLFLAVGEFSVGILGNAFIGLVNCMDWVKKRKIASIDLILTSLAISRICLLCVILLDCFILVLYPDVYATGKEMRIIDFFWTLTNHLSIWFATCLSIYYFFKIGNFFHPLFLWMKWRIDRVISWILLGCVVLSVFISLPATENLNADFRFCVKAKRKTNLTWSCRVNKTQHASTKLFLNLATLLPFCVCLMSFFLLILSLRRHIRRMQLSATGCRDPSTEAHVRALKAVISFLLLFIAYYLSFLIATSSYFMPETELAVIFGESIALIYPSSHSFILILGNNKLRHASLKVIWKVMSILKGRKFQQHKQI
hT2R3, sequence (Q9NYW6 whole entry): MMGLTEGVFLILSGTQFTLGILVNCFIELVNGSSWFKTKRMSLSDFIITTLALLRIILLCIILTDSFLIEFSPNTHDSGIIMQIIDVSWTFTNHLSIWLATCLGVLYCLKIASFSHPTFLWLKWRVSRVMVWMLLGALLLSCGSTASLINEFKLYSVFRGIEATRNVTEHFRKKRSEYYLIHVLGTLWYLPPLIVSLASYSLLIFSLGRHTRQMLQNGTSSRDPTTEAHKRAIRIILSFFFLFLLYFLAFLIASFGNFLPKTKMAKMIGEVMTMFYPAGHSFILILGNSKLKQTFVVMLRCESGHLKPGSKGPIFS
hT2R61, sequence (P59537 whole entry): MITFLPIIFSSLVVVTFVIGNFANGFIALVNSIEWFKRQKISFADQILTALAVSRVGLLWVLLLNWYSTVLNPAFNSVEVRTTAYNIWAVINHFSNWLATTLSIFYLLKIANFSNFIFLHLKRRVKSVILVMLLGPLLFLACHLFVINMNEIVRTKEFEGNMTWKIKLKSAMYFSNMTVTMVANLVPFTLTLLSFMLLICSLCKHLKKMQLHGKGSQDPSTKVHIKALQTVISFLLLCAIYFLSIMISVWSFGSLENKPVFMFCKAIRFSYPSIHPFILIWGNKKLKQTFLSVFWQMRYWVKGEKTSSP
hT2R51, sequence (P59533 whole entry): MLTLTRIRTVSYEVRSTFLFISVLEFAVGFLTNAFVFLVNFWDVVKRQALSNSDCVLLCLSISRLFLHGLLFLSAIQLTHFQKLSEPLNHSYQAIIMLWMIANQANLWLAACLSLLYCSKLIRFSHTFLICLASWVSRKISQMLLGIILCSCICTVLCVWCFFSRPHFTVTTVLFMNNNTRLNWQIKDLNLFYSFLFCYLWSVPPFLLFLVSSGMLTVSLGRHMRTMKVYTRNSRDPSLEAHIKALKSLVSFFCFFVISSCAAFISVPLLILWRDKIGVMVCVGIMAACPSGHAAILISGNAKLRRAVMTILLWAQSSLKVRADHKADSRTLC
hT2R64, sequence (P59538 whole entry): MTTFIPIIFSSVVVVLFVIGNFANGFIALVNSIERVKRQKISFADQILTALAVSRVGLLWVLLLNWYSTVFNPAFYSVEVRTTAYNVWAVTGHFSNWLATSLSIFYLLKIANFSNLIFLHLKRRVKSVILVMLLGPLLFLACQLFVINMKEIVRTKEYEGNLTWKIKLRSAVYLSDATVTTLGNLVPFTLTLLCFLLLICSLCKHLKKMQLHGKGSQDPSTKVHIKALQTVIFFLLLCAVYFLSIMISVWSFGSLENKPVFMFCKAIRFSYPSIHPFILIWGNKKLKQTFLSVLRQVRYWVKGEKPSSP
hT2R4, sequence (Q9NYW5 whole entry): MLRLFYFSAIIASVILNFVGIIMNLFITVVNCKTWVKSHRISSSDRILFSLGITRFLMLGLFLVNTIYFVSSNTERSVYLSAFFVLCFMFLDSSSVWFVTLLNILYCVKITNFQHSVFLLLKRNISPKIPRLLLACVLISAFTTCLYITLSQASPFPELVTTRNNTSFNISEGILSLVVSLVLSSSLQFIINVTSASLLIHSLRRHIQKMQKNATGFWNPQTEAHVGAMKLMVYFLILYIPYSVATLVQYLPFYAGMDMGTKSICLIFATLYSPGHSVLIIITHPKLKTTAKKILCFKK
hT2R5, sequence (Q9NYW4 whole entry): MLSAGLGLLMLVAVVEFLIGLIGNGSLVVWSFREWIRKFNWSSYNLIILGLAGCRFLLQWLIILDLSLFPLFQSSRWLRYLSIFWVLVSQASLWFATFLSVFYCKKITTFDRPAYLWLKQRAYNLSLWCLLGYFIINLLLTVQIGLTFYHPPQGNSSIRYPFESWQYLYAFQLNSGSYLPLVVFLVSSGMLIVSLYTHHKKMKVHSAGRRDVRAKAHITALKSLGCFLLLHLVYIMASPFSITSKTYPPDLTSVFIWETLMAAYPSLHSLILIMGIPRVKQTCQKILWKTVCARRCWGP
hT2R16, sequence (Q9NYV7 whole entry): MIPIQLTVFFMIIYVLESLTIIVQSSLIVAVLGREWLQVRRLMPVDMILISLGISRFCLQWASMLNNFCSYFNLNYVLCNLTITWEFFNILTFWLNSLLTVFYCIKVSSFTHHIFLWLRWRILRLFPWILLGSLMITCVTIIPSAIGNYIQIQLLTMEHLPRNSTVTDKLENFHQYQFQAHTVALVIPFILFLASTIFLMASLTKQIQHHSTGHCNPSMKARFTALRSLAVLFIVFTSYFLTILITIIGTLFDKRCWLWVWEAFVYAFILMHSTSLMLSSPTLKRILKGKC
hT2R75, sequence (P59540 whole entry): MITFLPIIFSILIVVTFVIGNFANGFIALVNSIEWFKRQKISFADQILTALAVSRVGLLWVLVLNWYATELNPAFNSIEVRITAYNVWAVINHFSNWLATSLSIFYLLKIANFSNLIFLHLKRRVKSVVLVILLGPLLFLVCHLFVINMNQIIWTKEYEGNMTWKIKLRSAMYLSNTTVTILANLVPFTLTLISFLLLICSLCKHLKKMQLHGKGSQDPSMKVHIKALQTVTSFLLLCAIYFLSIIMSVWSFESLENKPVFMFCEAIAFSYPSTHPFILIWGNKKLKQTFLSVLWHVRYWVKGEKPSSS
hT2R10, sequence (Q9NYW0 whole entry): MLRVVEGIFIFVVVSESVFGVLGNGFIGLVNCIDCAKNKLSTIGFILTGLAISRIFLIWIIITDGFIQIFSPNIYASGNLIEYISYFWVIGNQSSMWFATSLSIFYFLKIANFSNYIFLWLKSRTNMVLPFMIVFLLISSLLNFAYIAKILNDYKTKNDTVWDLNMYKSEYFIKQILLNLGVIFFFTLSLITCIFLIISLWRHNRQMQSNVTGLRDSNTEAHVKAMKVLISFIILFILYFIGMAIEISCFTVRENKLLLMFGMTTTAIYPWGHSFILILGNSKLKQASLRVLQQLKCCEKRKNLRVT
hT2R71, sequence (P59536 whole entry): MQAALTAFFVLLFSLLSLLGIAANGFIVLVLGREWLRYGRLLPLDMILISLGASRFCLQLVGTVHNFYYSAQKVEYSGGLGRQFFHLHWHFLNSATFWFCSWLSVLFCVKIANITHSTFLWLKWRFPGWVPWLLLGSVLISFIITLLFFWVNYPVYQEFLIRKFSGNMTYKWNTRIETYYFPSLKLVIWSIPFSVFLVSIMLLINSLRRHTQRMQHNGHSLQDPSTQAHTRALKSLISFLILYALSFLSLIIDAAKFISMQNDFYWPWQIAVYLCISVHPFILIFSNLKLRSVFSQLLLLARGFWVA

`COc1ccc(CN(Cc2ccco2)S(=O)(=O)c2ccc(C(=O)O)cc2)cc1` [Example 5-2, 4-(N-(furan-2-ylmethyl)-N-(4-methoxybenzyl)sulfamoyl)benzoic acid] returned a melting point of 151 to 152 °C. For the same molecule, the inhibition at 25 µM in [1] was greater than 80%. Also, the inhibition at 25 µM in [2] lay within 40 to 60%. In addition, in [3], the “screening result against bitter receptor 55” value is “++++ (80% or greater inhibition = ++++)”. Moreover, the inhibition at 25 µM in data set [4] is greater than 80%. Moreover, in [5], the inhibition at 25 µM is 40 to 60%. The inhibition at 25 µM in data set [6] lay in the range of 60 to 80%. Moreover, the “screening result against bitter receptor 67” value in data set [7] is “+ (20% to 40% inhibition = +)”. Further, the inhibition at 25 µM in data set [8] was in the range of 60 to 80%. In addition, in data set [9], the inhibition at 25 µM was 60 to 80%. Further, in data set [10], the “screening result against bitter receptor 63” value is recorded as “++++ (80% or greater inhibition = ++++)”. Further, in data set [11], the “screening result against bitter receptor 44” value is “+++ (60% to 80% inhibition = +++)”. In addition, the inhibition at 25 µM in [12] fell in the range of 20 to 40%. For the same molecule, the inhibition at 25 µM in [13] lay within 60 to 80%. Also, the IC50 in data set [14] amounted to 590 nM. Also, the inhibition at 25 µM in [15] lay within 40 to 60%. Besides, the “screening result against bitter receptor 54” value in [16] was “+ (20% to 40% inhibition = +)”. Moreover, the “screening result against bitter receptor 65” value in data set [17] is “+ (20% to 40% inhibition = +)”. Moreover, in data set [18], the inhibition at 25 µM lay within 20 to 40%. In addition, the inhibition at 25 µM in data set [19] was 20 to 40%.
For `Cc1noc(C)c1Cn1cc(N2C(=O)N(Cc3cccc(O)c3)C(C)(C)C2=O)cn1` [Example 12-1, 3-(1-((3,5-dimethylisoxazol-4-yl)methyl)-1H-pyrazol-4-yl)-1-(3-hydroxybenzyl)-5,5-dimethylimidazolidine-2,4-dione], in [20], the “Selected as bitterer: With antagonists” value was 2 and the “Selected as bitterer: Without antagonists” value is 14. Further, the IC50 in [21] worked out at 50 nM.
Consider `COc1ccc(CN2C(=O)N(c3cnn(Cc4c(C)noc4C)c3)C(=O)C2(C)C)cc1O` [Example 12-2, 3-(1-((3,5-dimethylisoxazol-4-yl)methyl)-1H-pyrazol-4-yl)-1-(3-hydroxy-4-methoxybenzyl)-5,5-dimethylimidazolidine-2,4-dione], for which, in data set [20], the “Selected as bitterer: With antagonists” value is on record as 2 and the “Selected as bitterer: Without antagonists” value was determined as 14. Also, the IC50 in [21] is 60 nM.
`COc1cc(O)cc(CN2C(=O)N(c3cnn(Cc4c(C)noc4C)c3)C(=O)C2(C)C)c1` [Example 12-17, 3-(1-((3,5-dimethylisoxazol-4-yl)methyl)-1H-pyrazol-4-yl)-1-(3-hydroxy-5-methoxybenzyl)-5,5-dimethylimidazolidine-2,4-dione] had a melting point of 72 to 74 °C. Moreover, in data set [20], the “Selected as bitterer: With antagonists” value was 3 and the “Selected as bitterer: Without antagonists” value was determined as 17. Besides, the IC50 in [21] was determined as 20 nM.
In the case of `Cc1noc(C)c1Cn1cc(N2C(=O)N(Cc3cccc(CO)c3)C(C)(C)C2=O)cn1` [Example 12-34, 3-(1-((3,5-dimethylisoxazol-4-yl)methyl)-1H-pyrazol-4-yl)-1-(3-(hydroxymethyl)benzyl)-5,5-dimethylimidazolidine-2,4-dione], in [20], the “Selected as bitterer: With antagonists” value amounted to 3 and the “Selected as bitterer: Without antagonists” value was 13. For the same molecule, in data set [21], the IC50 was 110 nM.
